A short description of series [1]: Hepatic microsomal stability, HLM. The format is in vitro ADME, human. Conditions: In vitro human liver microsomal stability; for perc_remaining_no_cofactor: no cofactor. Background: Microsomes from liver hold many membrane-bound enzymes, among them those of drug oxidation.
A short description of series [2]: Permeability Papp (AB) MDR1/MDCKII. Conditions: In vitro MDR1-MDCKII permeability; for papp_a_to_b_mean: A to B; for perc_recovery_a_to_b_mean: recovery A to B.
Series [3] in a line: in vitro. Conditions: human, hela-ace2 cells, 50.0.
Series [4] has as its system SARS-CoV-2. Put plainly: Antiviral effect in iPSC-derived pneumocyte system. It counts as cell-based. Conditions: iPSC pneumocytes SARS-CoV-2 antiviral effect; for perc_max_measured: maximum measured response of dose series; for perc_min_measured: minimum measured response of dose series.
For series [5], the system named is SARS-CoV-2, isolate USA-WA1/2020. Kind of series: microbe, parasite or virus in culture. The format is cell-based. To be noted: HeLa-ACE2 SARS-CoV-2 antiviral effect without P-gp inhibitor; for perc_max_measured: maximum measured response of dose series; for perc_min_measured: minimum measured response of dose series; for pEC50: read-out: ec50; for EC90: read-out: ec90.

Series [6] in a line: Hepatic microsomal stability, MLM. The format is in vitro ADME.
Series [7] is described as follows: In vitro kinetic solubility. Conditions: In vitro kinetic solubility, ph 7.4.
Series [8] is described as follows: LogD. To be noted: pH 7.4; In vitro LogD.
In series [9] the test system is HeLa-ACE2 cells. To be noted: for perc_max_measured: highest measured response of the dose series; for perc_min_measured: lowest measured response of the dose series.
For series [10], the system named is iPSC pneumocytes. Kind of series: iPSC pneumocytes cytotoxicity. The format is cell-based. To be noted: protocol iPSC pneumocytes cytotoxicity; for perc_max_measured: highest measured response of the dose series; for perc_min_measured: lowest measured response of the dose series. An excerpt: Supplement media-1.zip/Cytotoxicity.csv, table | column: cc10; cc50; perc_min_measured; perc_max_measured

The target of series [11] is T1, SARS-CoV-2 nsp3-mac1 (Severe acute respiratory syndrome coronavirus 2, UniProt P0DTD1). Put plainly: biochemical. The format is biochemical. To be noted: for inhibition at 50 µM / inhibition at 100 µM: read-out: perc_inhibition_mean; for perc_inhibition_mean: SARS-CoV-2 nsp3 macrodomain TR-FRET single point, concentration 50.0 uM. A general note: TR-FRET usually uses a lanthanide donor and a delayed reading to cut background.

In series [12] the target is T1, SARS-CoV-2 nsp3-mac1. Kind of series: biochemical. Conditions: for perc_max_measured: highest measured response; for perc_min_measured: lowest measured response; for hill_slope: TR-FRET dose response curve fit.
Series [13] concerns the target T1, SARS-CoV-2 nsp3-mac1. Put plainly: biochemical. Set-up: SARS-CoV-2 nsp3 macrodomain TR-FRET single point, per cent inhibition, n=2.
[14] abbreviates: In vitro mouse liver microsomal stability.
The mark [15] stands for this setting: protocol HeLa-ACE2 cytotoxicity.
[16] abbreviates: IC50, nsp3-mac1 activity, Figures 1-3 and text.
The mark [17] stands for this setting: TR-FRET dose response, supplement, read-out: ic50.
The mark [18] stands for this setting: HTRF IC50, Figure 4A, racemic mixture.
Where [19] appears, read: In vitro mouse liver microsomal stability, no cofactor.

pEC50, pIC50: −log10 of the molar value. Values after ≈ are worked out from the molar mass of the structure shown. Values joined by “and” are separate entries in the source; they are usually repeats but may differ in a detail not shown here. Identical values can stand only once. Like-named read-outs stand apart in the source and are kept apart here.

On to `Cn1ncc(-c2cc3c(N[C@@H](c4ccc5c(c4)OCCO5)C(C)(C)C)ncnc3[nH]2)c1C#N` (racemic) [ASAP-0008484], for which, in series [1], the clint is 85.0 µL/min/mg, the perc_remaining amounted to 22.0%, the t_half is 19.6 min and the perc_remaining_no_cofactor is 109.0%. In series [2] (mean), this compound registered a papp_a_to_b_mean of 2.79 ×10⁻⁶ cm/s and a perc_recovery_a_to_b_mean of 39.4%. Also, in series [3], the CC50 at 24 h is over 20 µM. Moreover, in series [4], the pEC50 was 5.12, the EC90 was found to be 13.4 µM, the perc_max_measured is 131.986% and the perc_min_measured is given as 2.165%. In [5], the perc_max_measured is 91.316% and 93.387%; the perc_min_measured is 1.9% and 1.413%; the pEC50 is 5.98 and 5.95; the EC90 was 2.12 µM and 3.3 µM. In [6] (setting [14]), the clint amounted to 199.0 µL/min/mg, the perc_remaining is reported as 4.0% and the t_half is 8.4 min. The perc_remaining_no_cofactor in series [6] (In vitro mouse liver microsomal stability; no cofactor) stood at 100.0%. The same compound gave a solubility_mean in [7] of 25 µM (≈ 11.1 µg/mL). The compound further returned a logd in series [8] of 2.9. Also, in [9] (setting [15]), the CC50 was over 20 µM; the cc10 is over 20.0 µM; the perc_max_measured is 117.871% and 98.808%; the perc_min_measured is 61.501% and 55.999%. Moreover, in series [10], the CC50 worked out at 48.6 µM, the cc10 is 41.767 µM, the perc_max_measured came out at 107.062% and the perc_min_measured is 63.039%.
Consider `Cc1[nH]c2ncnc(NC(=O)C3CC=CC3)c2c1C` [ASAP-0000025], for which, in [11], the inhibition at 50 µM came to 73.1%. For the same compound, the negative-log IC50 (pIC50) in [12] (setting [16]) is 4.38.
The corresponding values for `CC(C)C(Nc1ncnc2n[nH]cc12)c1cnn(C)c1` (stereo not drawn) [ASAP-0000031] are 63.5% and 4.37.
Compound `O=C(NCc1cc2n(n1)CCCC2)c1cc2cncnc2[nH]1` [ASAP-0000134] displayed a perc_inhibition_mean in series [11] of 4.173%. The inhibition at 50 µM in [13] (read-out: perc_inhibition_mean, batch_name=ASAP-0000134-001) worked out at 4.17%. In series [12] (TR-FRET dose response), the perc_max_measured stood at 2.258% and the perc_min_measured is -11.392%. Besides, in series [12] (setting [17]), the pIC50 is under 3.91.
In the case of `O=C(c1cccc(Br)c1)N1CCC(c2ccn3ncc(C(=O)N4CCCCC4)c3c2)CC1` [ASAP-0000191], in series [11], the perc_inhibition_mean was 32.136%. Also, the inhibition at 50 µM in series [13] (read-out: perc_inhibition_mean, batch_name=ASAP-0000191-001) was found to be 32.1%. In [12], this compound gave a hill_slope of 0.907. In [12] (TR-FRET dose response), the perc_max_measured was determined as 41.392% and the perc_min_measured is -0.981%. The pIC50 in [12] (setting [17]) is under 3.91.
For the compound `O=C(OCc1cccc(Cl)n1)c1ncnc2[nH]ccc12` [ASAP-0000193], the perc_inhibition_mean in series [11] was 11.426%. Further, the inhibition at 50 µM in series [13] (read-out: perc_inhibition_mean, batch_name=ASAP-0000193-001) came out at 11.4%. The same compound gave a hill_slope in series [12] of 1.685. Also, in [12] (TR-FRET dose response), the perc_max_measured was 38.614% and the perc_min_measured was -4.676%. Also, the pIC50 in series [12] (setting [17]) is under 3.91.
Take `O=C(O)c1cscc1C(=O)N1CCC(c2ccn3ncc(C(=O)N4CCCCC4)c3c2)CC1` [ASAP-0000259]: in series [11], the inhibition at 50 µM is 47.7% and the inhibition at 100 µM was 66.7%. This compound had a pIC50 in series [12] (setting [16]) of 4.36.
The matching figures for `Cc1[nH]c2ncnc(NC(=O)c3ccncc3Cl)c2c1C` [ASAP-0000266]: 69.6%, 85.6% and 4.60.
Take `COc1ccc(C(Nc2ncnc3[nH]ccc23)C(C)C)cc1` (stereo not drawn) [ASAP-0000752]: the pIC50 in series [12] (setting [18]) was 5.14.
With `O=C(O)C(Nc1ncnc2[nH]ccc12)c1ccc2c(c1)OCCO2` (stereo not drawn) [ASAP-0000789], the pIC50 in series [12] (setting [18]) was 5.06.
For the compound `c1nc(NC(c2ccc3c(c2)OCCO3)C2CCC2)c2cc[nH]c2n1` (stereo not drawn) [ASAP-0000866], the pIC50 in [12] (setting [18]) was 5.24.
Consider `FC(F)(F)C(Nc1ncnc2[nH]ccc12)c1ccc2c(c1)OCCO2` (stereo not drawn) [ASAP-0000870], for which, in series [12] (Figure 4A, racemic mixture, read-out: HTRF IC50), the pIC50 is 4.72.
In the case of `CC(C)(C)C(Nc1ncnc2[nH]ccc12)c1ccc2c(c1)OCCO2` (stereo not drawn) [ASAP-0008277], the pIC50 in [12] (setting [18]) is 5.96.
Regarding `CC(C)[C@@H](Nc1ncnc2[nH]c(-c3cnn(C)n3)cc12)c1ccc2c(c1)OCCO2` [ASAP-0008469], the CC50 at 24 h in series [3] was over 20 µM. Also, in [4], the pEC50 was 4.88, the EC90 is 25.3 µM, the perc_max_measured is recorded as 157.709% and the perc_min_measured was found to be 4.934%. Besides, in series [5], the perc_max_measured is 101.658% and 92.76%; the perc_min_measured was 24.481% and 27.109%; the pEC50 is 5.27 and 5.18; the EC90 was over 20 µM. Further, in series [9], the CC50 was over 20 µM and the cc10 is over 20.0 µM. In series [9] (setting [15]), the perc_max_measured was 104.412% and 106.04%; the perc_min_measured was 76.407% and 89.613%. Further, in series [10], the perc_max_measured is on record as 89.766% and the perc_min_measured amounted to 75.657%.
In the case of `CC(C)C(Nc1ncnc2[nH]c(-c3cnn(C)c3)cc12)c1ccc2c(c1)OCCO2` (stereo not drawn) [ASAP-0008596], the pIC50 in [12] (setting [16]) is 6.25.
On to `CC(C)C(Nc1ncnc2[nH]c(C(=O)NC3CCN(C)C3)cc12)c1ccc2c(c1)OCCO2` (stereo not drawn) [ASAP-0010747], for which the pIC50 in [12] (setting [18]) was 6.34.
With `CC(C)[C@@H](Nc1ncnc2[nH]c(-c3cncc(S(C)(=O)=O)c3)cc12)c1ccc2c(c1)S(=O)(=O)CCC2` [ASAP-0012320], in series [1], the clint turned out to be 635.0 µL/min/mg, the perc_remaining came to 1.0%, the t_half came out at 2.6 min and the perc_remaining_no_cofactor is listed as 104.0%. Moreover, in series [2] (no inhibitor), the papp_a_to_b_mean worked out at 0.491 ×10⁻⁶ cm/s and the perc_recovery_a_to_b_mean is listed as 66.6%. In series [3], this compound showed a CC50 at 24 h of over 20 µM. Also, in series [5], the perc_max_measured was found to be 119.816%, the perc_min_measured is reported as 96.629%, the pEC50 was under 4.70 and the EC90 is over 20 µM. In addition, in series [6] (setting [14]), the clint is 272.0 µL/min/mg, the perc_remaining turned out to be 1.0% and the t_half worked out at 6.1 min. The perc_remaining_no_cofactor in [6] (setting [19]) is 112.0%. Further, the solubility_mean in series [7] was found to be 31 µM (≈ 16.3 µg/mL). Further, the logd in series [8] is on record as 3.1. In series [9] (HeLa-ACE2 cytotoxicity), the CC50 was over 20 µM, the cc10 is over 20.0 µM, the perc_max_measured came to 98.548% and the perc_min_measured came out at 93.918%.
Take `CNC(=O)c1cccc(-c2cc3c(N[C@@H](c4ccc5c(c4)S(=O)(=O)CCC5)C(C)C)ncnc3[nH]2)c1` [ASAP-0012344]: in series [1], the clint stood at 455.0 µL/min/mg, the perc_remaining is 0.0%, the t_half turned out to be 3.7 min and the perc_remaining_no_cofactor was 93.0%. In series [2] (no inhibitor), this compound had a papp_a_to_b_mean of 0.627 ×10⁻⁶ cm/s and a perc_recovery_a_to_b_mean of 67.1%. This compound yielded a CC50 at 24 h in [3] of over 20 µM. Besides, in [5], the perc_max_measured was 108.746%, the perc_min_measured is recorded as 56.34%, the pEC50 was under 4.70 and the EC90 was over 20 µM. For the same compound, in series [6] (setting [14]), the clint amounted to 882.0 µL/min/mg, the perc_remaining was 1.0% and the t_half was 1.9 min. The perc_remaining_no_cofactor in series [6] (setting [19]) stood at 101.0%. The solubility_mean in series [7] came out at 15 µM (≈ 7.55 µg/mL). In series [8], the logd amounted to 3.7. In [9] (setting [15]), the CC50 is over 20 µM, the cc10 was over 20.0 µM, the perc_max_measured turned out to be 109.077% and the perc_min_measured is listed as 84.376%.

As a reminder, the CC50 is the concentration giving 50% cytotoxicity. A low value points to greater toxicity to the cells. As usually defined, the pEC50 is the EC50 on a negative log10 scale, so that one unit is a factor of ten. The term EC90 denotes the concentration at which the effect reaches the 90% level. Usually pIC50 stands for the negative decadic logarithm of the IC50, by convention in mol/L.

The record behind these values is article doi:10.1101/2024.08.19.608619, “Discovery of potent SARS-CoV-2 nsp3 macrodomain inhibitors uncovers lack of translation to cellular antiviral response” (bioRxiv, 2024).
